Earlier results on one compound are cited in patent US6214381A, “Methazolamide composition and method of use” (Effcon, Inc., priority 1998, dated 2001).

For the data set the following is noted: background statement.

For `CC(=O)N=c1sc(S(N)(=O)=O)nn1C` [Methazolamide, methazolamide], the water solubility result is reported as “water-insoluble”.
